Measured values as given in PubChem BioAssay (NCI).
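GI50 is the concentration that inhibits growth by half. At the TGI there is no net growth.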

Tests used:
Experiment in all cases: NCI-60 cell line screen, 384-well format
[1] = system: OVCAR-3 ovarian
[2] = system: TK-10 renal
[3] = system: OVCAR-4 ovarian
[4] = system: NCI/ADR-RES ovarian
[5] = system: OVCAR-8 ovarian
[6] = system: CCRF-CEM leukemia
[7] = system: LOX IMVI melanoma
[8] = system: NCI-H226 lung
[9] = system: SN12C renal
[10] = system: HOP-92 NSCLC
[11] = system: T-47D breast
[12] = system: SR leukemia
[13] = system: U251 glioblastoma
[14] = system: HCT-116 colon
[15] = system: MDA-MB-435 melanoma
[16] = system: MALME-3M melanoma
[17] = system: NCI-H522 lung
[18] = system: SK-MEL-2 melanoma
[19] = system: DU-145 prostate
[20] = system: A549 NSCLC
[21] = system: HCC-2998 colon
[22] = system: NCI-H460 NSCLC
[23] = system: SK-MEL-28 melanoma
[24] = system: OVCAR-5 ovarian
[25] = system: NCI-H23 lung
[26] = system: CAKI-1 renal
[27] = system: SK-MEL-5 melanoma
[28] = system: A498 renal
[29] = system: UACC-62 melanoma
[30] = system: SNB-19 CNS
[31] = system: HT29 colon
[32] = system: COLO 205 colon
[33] = system: HL-60(TB) leukemia
[34] = system: EKVX NSCLC
[35] = system: KM12 colon
[36] = system: SF-295 CNS
[37] = system: PC-3 prostate
[38] = system: RXF 393 renal
[39] = system: HS 578T breast
[40] = system: SW-620 colon
[41] = system: HOP-62 NSCLC
[42] = system: HCT-15 colon
[43] = system: MDA-MB-231 breast
[44] = system: M14 melanoma
[45] = system: MOLT-4 leukemia
[46] = system: 786-0 renal
[47] = system: MDA-MB-468 breast
[48] = system: SF-539 CNS
[49] = system: BT-549 breast
[50] = system: SK-OV-3 ovarian
[51] = system: IGROV1 ovarian
[52] = system: SNB-75 CNS
[53] = system: K-562 leukemia
[54] = system: SF-268 CNS
[55] = system: UACC-257 melanoma
[56] = system: RPMI-8226 leukemia
[57] = system: MCF7 breast
[58] = system: ACHN renal
[59] = system: NCI-H322M lung

Question: What does the source list for `Nc1ncn([C@H]2CC(O)[C@@H](CO)S2)c(=O)n1` (stereo partly specified)?
Answer: GI50 [1]: 461 nM; TGI [1]: 7090 nM; GI50 [2]: 4220 nM; TGI [2]: > 100000 nM; GI50 [3]: 2610 nM; TGI [3]: > 100000 nM; GI50 [4]: 139 nM; TGI [4]: 1260 nM; GI50 [5]: 82.2 nM; TGI [5]: 2690 nM; GI50 [6]: 17.3 nM; TGI [6]: 595 nM; GI50 [7]: 534 nM; TGI [7]: 3410 nM; GI50 [8]: 1710 nM; TGI [8]: 20700 nM; GI50 [9]: 251 nM; TGI [9]: > 39900 nM; GI50 [10]: 284 nM; TGI [10]: > 100000 nM; GI50 [11]: 7690 nM; TGI [11]: > 100000 nM; GI50 [12]: 123 nM; TGI [12]: 808 nM; GI50 [13]: 1920 nM; TGI [13]: 24800 nM; GI50 [14]: 55.8 nM; TGI [14]: 5340 nM; GI50 [15]: 1120 nM; TGI [15]: > 100000 nM; GI50 [16]: 257 nM; TGI [16]: 2030 nM; GI50 [17]: 50.1 nM; TGI [17]: 529 nM; GI50 [18]: 253 nM; TGI [18]: 691 nM; GI50 [19]: 366 nM; GI50 [20]: 155 nM; TGI [20]: 3050 nM; GI50 [21]: 124 nM; TGI [21]: 3280 nM; GI50 [22]: 39.9 nM; TGI [22]: 491 nM; GI50 [23]: 340 nM; TGI [23]: 2750 nM; GI50 [24]: 3190 nM; TGI [24]: > 100000 nM; GI50 [25]: 272 nM; TGI [25]: 1800 nM; GI50 [26]: 266 nM; TGI [26]: 14700 nM; GI50 [27]: 70.6 nM; TGI [27]: 1330 nM; GI50 [28]: 146 nM; TGI [28]: 2650 nM; GI50 [29]: 1230 nM; TGI [29]: 17300 nM; GI50 [30]: 442 nM; TGI [30]: > 100000 nM; GI50 [31]: 1360 nM; TGI [31]: > 77800 nM; GI50 [32]: 239 nM; TGI [32]: 1760 nM; GI50 [33]: 114 nM; TGI [33]: 573 nM; GI50 [34]: 3160 nM; TGI [34]: > 75400 nM; GI50 [35]: 441 nM; TGI [35]: > 100000 nM; GI50 [36]: 7650 nM; TGI [36]: > 74700 nM; GI50 [37]: 1270 nM; TGI [37]: > 75100 nM; GI50 [38]: 839 nM; TGI [38]: 15100 nM; GI50 [39]: 1580 nM; TGI [39]: 17900 nM; GI50 [40]: 377 nM; TGI [40]: 16200 nM; GI50 [41]: 417 nM; TGI [41]: 5260 nM; GI50 [42]: 1090 nM; TGI [42]: 22100 nM; GI50 [43]: 251 nM; TGI [43]: 3420 nM; GI50 [44]: 2340 nM; TGI [44]: 17600 nM; TGI [45]: 14.4 nM; GI50 [46]: 178 nM; TGI [46]: 10900 nM; GI50 [47]: 153 nM; TGI [47]: 741 nM; GI50 [48]: 2020 nM; TGI [48]: 45000 nM; GI50 [49]: 619 nM; TGI [49]: 6520 nM; GI50 [50]: 1820 nM; TGI [50]: 33600 nM; GI50 [51]: 2780 nM; TGI [51]: > 100000 nM; GI50 [52]: 7750 nM; TGI [52]: > 74100 nM; GI50 [53]: 200 nM; TGI [53]: 12600 nM; GI50 [54]: 1240 nM; TGI [54]: 24000 nM; GI50 [55]: 4760 nM; TGI [55]: 21400 nM; GI50 [56]: 622 nM; TGI [56]: 2680 nM; GI50 [57]: 256 nM; TGI [57]: > 100000 nM; GI50 [58]: 111 nM; TGI [58]: 11700 nM; GI50 [59]: 1320 nM; TGI [59]: > 100000 nM
